Experimental findings from PMC8591608, “DNDI-6148: A Novel Benzoxaborole Preclinical Candidate for the Treatment of Visceral Leishmaniasis” (Journal of Medicinal Chemistry, 2021) are described below.

In series [1] the test system is Salmonella typhimurium strains (TA98 and TA100). As to the kind of experiment: Mini-Ames reverse mutation screen. To be noted: TA98 and TA100, with and without metabolic activation, 1.5 to 1000 μg/well. The format is cell-based. As for the experimental part:
Mini-Ames reverse mutation screens were conducted by WuXi AppTec, Co., China. Two Salmonella typhimurium strains (TA98 and TA100) were employed, both in the presence and absence of metabolic activation (induced rat liver S9). Test compounds were assessed at doses of 1.5, 4, 10, 25, 64, 160, 400, and 1000 μg per well, 2-aminoanthracene, 2-nitrofluorene, and sodium azide were used as positive controls, and the negative control was DMSO.

The subject of series [2] is panel of 88 targets (Cerep panel). The experiment in a line: Off-target panel (Eurofins Cerep panel). To be noted: at a concentration of 10 μM.

As to `Cc1c(C(=O)Nc2ccc3c(c2)B(O)OC3)nnn1-c1ccccn1` [Compound 23, N-(1-Hydroxy-1,3-dihydrobenzo[c][1,2]oxaborol-6-yl)-5-methyl-1-(pyridin-2-yl)-1H-1,2,3-triazole-4-carboxamide], in series [1], the Ames assay result is on record as “negative”. In series [2], the “activity in panel of 88 targets” value is recorded as ≤ 50%.
